Assay: Solubility (aqueous / gastrointestinal fluids)
Assay type: physicochemical

CCOC(=O)C(Cc1ccc(NC(=O)c2c(Cl)cccc2Cl)cc1)NC(=O)c1c(C)cccc1Cl (stereo not shown) [Compound II]
solubility in gastrointestinal fluids: practically insoluble

Source: US6350786B1, “Stable complexes of poorly soluble compounds in ionic polymers” (Hoffmann-La Roche Inc., priority 1998, dated 2002)
